For assay [1], the system named is cardiac fibroblasts transfected with AdV-Kv1.3-GFP. Put plainly: Phase contrast microscopy of cellular morphology of Kv1.3 expressing cardiac fibroblasts. It counts as cell-based, rat. Conditions: cells expressing Kv1.3 after 10^7 PFU/ml AdV-Kv1.3-GFP; phase contrast microscopy (FIG. 8B). The text has this:
(§1) Cells: Primary neonatal cardiac cells were obtained from ventricles of 2-3-day-old rat pups. The ventricles were fine minced, dissociated in Ca^2+-free Hank's balanced salt solution (HBSS) supplemented with 0.1%, trypsin and 0.006% pancreatin, and dispersed by triturating.
(§2) Separation and culture of cardiac myocytes and fibroblasts: The solution of dispersed cells was supplemented with 10% neonatal calf serum to stop enzymatic activity, centrifuged, resuspended in culture medium, pre-plated in large culture flasks, and incubated for two hours to isolate the fibroblast enriched fraction. Fibroblasts were further purified by media exchange within 1 hour after each passage. The myocytes remaining in suspension were collected and plated at 1.5 10^5 cells/cm^2 and grown for five to seven days before experimentation.
(§3) Transfection: Subconfluent myocyte and fibroblast cultures were transfected with AdV-Kv1.3-GFP or AdV-GFP at 10^6-10^8 PFU/ml. After transfection the cells were cultured in 0-5% serum media with 0, 1, 10 or 100 nM Charybdotoxin (CTx), which is a specific K^+ channel blocker. After three days in culture, the cells were visually monitored and assayed.

Assay [2] shares this test system. Kind of assay: Cell viability and apoptosis with Hoechst nuclei stain in Kv1.3 transfected cardiac fibroblasts. It counts as cell-based, rat. Particulars: for rescue of cells from Kv1.3 induced apoptosis: Kv1.3 transfected fibroblasts, n=3 for each titer, three days in culture.
From the text: as §1, §2, §3
Cell Viability and apoptosis: Cells were assayed for viability and apoptosis with Hoechst nuclei stain.

Regarding Charybdotoxin, the “cellular morphology of the fibroblasts” value in assay [1] is given as “maintained normal cellular morphology”. The “rescue of cells from Kv1.3 induced apoptosis” value in assay [2] (Charybdotoxin alone (FIG. 7A)) was “partially rescued the cells”; in assay [2] (cTx and 5% serum (FIG. 7B)) it was “partially rescued the cells”. Moreover, in assay [2] (cells expressing Kv1.3, addition of Charybdotoxin (FIG. 8)), the “cardiac fibroblast cell viability” value is listed as “rescued”.

The values above are taken from patent publication US20110144028A1, “MODULATING CELLULAR ELECTROPHYSIOLOGY” (priority 2009, published 2011).
